{
  "source": "patent US8877819B2",
  "about": "“Methods for treating heat stress and related compositions” (Georgetown University, priority 2008, dated 2014)",
  "biological_target": "T1, angiotensin converting enzyme (ACE) (Rattus norvegicus, UniProt P47820)",
  "T1 construct": "from tissue; host or cells: rat serum",
  "T1 sequence (P47820 36-1313)": "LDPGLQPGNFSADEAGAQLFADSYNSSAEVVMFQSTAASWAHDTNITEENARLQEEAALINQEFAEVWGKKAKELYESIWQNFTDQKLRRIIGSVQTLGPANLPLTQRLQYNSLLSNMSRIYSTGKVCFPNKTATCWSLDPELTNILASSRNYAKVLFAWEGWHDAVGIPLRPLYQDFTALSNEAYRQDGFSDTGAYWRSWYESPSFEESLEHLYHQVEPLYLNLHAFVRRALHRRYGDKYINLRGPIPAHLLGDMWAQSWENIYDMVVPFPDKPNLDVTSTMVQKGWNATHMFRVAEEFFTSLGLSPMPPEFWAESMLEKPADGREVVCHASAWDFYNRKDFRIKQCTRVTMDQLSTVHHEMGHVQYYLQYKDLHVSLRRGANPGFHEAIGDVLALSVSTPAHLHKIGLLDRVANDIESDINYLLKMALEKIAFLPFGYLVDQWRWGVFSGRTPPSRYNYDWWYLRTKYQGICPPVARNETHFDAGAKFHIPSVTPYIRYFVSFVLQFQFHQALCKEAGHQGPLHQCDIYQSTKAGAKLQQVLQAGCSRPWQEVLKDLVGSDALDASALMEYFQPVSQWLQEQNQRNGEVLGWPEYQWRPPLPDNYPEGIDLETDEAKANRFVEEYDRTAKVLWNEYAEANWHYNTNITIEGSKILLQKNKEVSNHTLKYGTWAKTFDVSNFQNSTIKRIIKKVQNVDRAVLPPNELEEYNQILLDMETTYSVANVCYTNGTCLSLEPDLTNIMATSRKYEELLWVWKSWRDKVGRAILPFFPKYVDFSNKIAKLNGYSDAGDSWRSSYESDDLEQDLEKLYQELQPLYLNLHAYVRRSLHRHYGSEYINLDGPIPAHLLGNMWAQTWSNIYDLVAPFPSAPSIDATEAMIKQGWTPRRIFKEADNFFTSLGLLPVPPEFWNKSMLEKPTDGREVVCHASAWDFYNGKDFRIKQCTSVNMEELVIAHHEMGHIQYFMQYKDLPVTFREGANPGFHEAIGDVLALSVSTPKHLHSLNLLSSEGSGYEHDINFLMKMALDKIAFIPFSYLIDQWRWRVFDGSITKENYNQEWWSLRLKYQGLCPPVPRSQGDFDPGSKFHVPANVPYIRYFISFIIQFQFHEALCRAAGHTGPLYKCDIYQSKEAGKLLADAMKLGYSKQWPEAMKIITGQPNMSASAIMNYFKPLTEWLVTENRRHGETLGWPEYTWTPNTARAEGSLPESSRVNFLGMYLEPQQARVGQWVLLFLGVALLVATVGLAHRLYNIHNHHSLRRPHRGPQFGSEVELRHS",
  "test": "Serum Angiotensin Converting Enzyme (ACE) activity",
  "assay_type": "in vivo, Zucker Fatty Rats",
  "method": "Serum ACE activity was measured by a commercial kit (Sigma Co. Ltd, St. Louis, Mo.). This spectrophotometric method utilizes the synthetic tripeptide substrate N-[3-(2-furyl)acryloyl]-phenylalanylglcylglcine (FAPGG). FAPGG is hydrolyzed by ACE to furylacryloylphenylalanine (FAP) and glycylglycine. Hydrolysis of FAPGG results in a decreased absorbency at 340 nm. Serum ACE activity was determined by comparing the sample reaction rate to that obtained with an appropriate ACE calibrator.",
  "data": [
    {"smiles": "CC1=C(/C=C/C(C)=C/C=C/C(C)=C/C=C/C=C(C)/C=C/C=C(C)/C=C/C2=C(C)C(=O)[C@@H](O)CC2(C)C)C(C)(C)C[C@H](O)C1=O", "note": "[Asta, astaxanthin]", "values": [
      {"measurement": "ACE activity", "setting": "Experiment 2, Hi Asta, astaxanthin 25 mg/kg in feed", "result": "24.2 ± 1.3", "unit": "units"},
      {"measurement": "ACE activity", "setting": "Experiment 2, Lo Asta, astaxanthin 5 mg/kg in feed", "result": "27.1 ± 1.4", "unit": "units"}
    ]}
  ]
}
